In assay [1] the test system is ex vivo stimulated LTB4 production. The experiment in a line: Murine arachidonic acid-induced inflammation model: ex vivo stimulated LTB4 production (% Inh. LTB4). The note with it: Mus musculus; female Balb/c mice, 30 mg/kg oral gavage; blood taken 3 h after arachidonic acid, ex vivo A23187 stimulation; number of determinations in parentheses. The protocol:
(§1) Assay 4: Murine Arachidonic Acid-Induced Inflammation Model
(§2) LTA4H inhibitor compounds of the present invention were dissolved in 20% cyclodextran/H2O at a concentration of 3 mg/mL. The solutions were administered by oral gavage to female Balb/c mice weighing approximately 20 grams each (0.2 mL per mouse, 30 mg of LTA4H inhibitor compound per kg). Sixty minutes after being administered an LTA4 inhibitor, each mouse received topical application of 20 μL of arachidonic acid (100 mg/mL in acetone) to the left ear and 20 μL of acetone only to the right ear. After 3 h, the mice were sacrificed, blood was withdrawn in heparinized syringes, and 8 mm ear biopsies were taken. Ear biopsies were weighed to determine edema and then frozen at −80° C. until needed for determination of neutrophil influx.
One hundred-microliter aliquots of heparinized blood were added to wells of a microtiter plate, along with equal volumes of RPMI-1640 medium, and calcium ionophore A23187 was added to each sample well (final concentration=[…]). The microtiter plate contents were incubated for 30 min at 37° C. in a humidified incubator. The reaction was terminated by centrifugation (833×g, 10 min at 4° C.). Supernatants were analyzed for LTB4 by a commercially available enzyme-linked immunoassay (Cayman Chemical Co.) in accordance with the manufacturer's instructions. The percent inhibition of ex vivo stimulated LTB4 production (% Inh. LTB4) was determined by comparison to animals treated identically except that the solution administered by oral gavage was devoid of inhibitor compound.
(§3) The number of determinations is indicated in parentheses following each value

In assay [2] the target is T1, recombinant human LTA4 hydrolase (rhLTA4H) (Homo sapiens, UniProt P09960).
T1 construct: made in house; host or cells: Spodoptera frugiperda (Sf-9) cells, recombinant baculovirus (pFastBac1)
T1 sequence (P09960 1-611): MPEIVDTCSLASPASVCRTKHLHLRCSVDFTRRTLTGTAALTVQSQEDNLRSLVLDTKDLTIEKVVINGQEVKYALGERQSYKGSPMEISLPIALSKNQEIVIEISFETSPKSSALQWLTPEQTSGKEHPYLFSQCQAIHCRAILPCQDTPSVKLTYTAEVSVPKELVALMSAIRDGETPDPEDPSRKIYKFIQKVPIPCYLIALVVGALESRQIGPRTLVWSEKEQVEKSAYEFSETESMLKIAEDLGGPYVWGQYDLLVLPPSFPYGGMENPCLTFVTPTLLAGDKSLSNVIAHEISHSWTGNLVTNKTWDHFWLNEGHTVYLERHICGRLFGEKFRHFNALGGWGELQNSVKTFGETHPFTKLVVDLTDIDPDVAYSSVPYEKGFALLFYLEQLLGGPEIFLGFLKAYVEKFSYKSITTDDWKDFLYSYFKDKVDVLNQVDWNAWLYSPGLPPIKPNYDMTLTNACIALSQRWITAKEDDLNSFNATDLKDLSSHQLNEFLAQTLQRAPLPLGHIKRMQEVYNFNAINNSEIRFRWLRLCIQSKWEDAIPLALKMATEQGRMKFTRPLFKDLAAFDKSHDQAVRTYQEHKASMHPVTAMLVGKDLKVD
Briefly: Recombinant human LTA4 hydrolase assay for LTA4 hydrolase inhibitor activity. It is filed as biochemical. The note with it: rhLTA4H, LTA4 substrate, LTB4 by immunoassay; single determination or average; read-out: IC50. Put shortly:
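LTB4 formed from LTA4 substrate (free acid from the methyl ester) was quantified by enzyme immunoassay after a 30 min rt reaction. Enzyme was 10 ng Sf-9-expressed human LTA4 hydrolase, pre-incubated 10 min with compound.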

Assay [3] has as its system LTB4 production by calcium ionophore-stimulated murine blood. Briefly: LTB4 production by calcium ionophore-stimulated murine blood for LTA4H inhibitor activity. The note with it: Mus musculus; murine blood diluted 1 in 15, calcium ionophore A23187, LTB4 by immunoassay; read-out: IC50. It is filed as cell-based, CD-1 mice. The gist of the method:
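LTB4 quantified by EIA in supernatants after murine (CD-1) heparinized whole blood was exposed to compound for 15 min, then to 7 μg/mL (final) A23187 for 30 min, all at 37° C. Reported values: single runs or means; three or more runs include SD.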

Assay [4] concerns neutrophil influx. The experiment in a line: Murine arachidonic acid-induced inflammation model: neutrophil influx in ear, myeloperoxidase activity (% Inh. MPO). It is filed as in vivo. The note with it: Mus musculus, female Balb/c mice, 30 mg/kg oral gavage, ear biopsy 3 h after topical arachidonic acid, number of determinations in parentheses. On the procedure:
as §1, §2
Neutrophil influx was quantified by measuring the activity of myeloperoxidase (MPO), a neutrophil-specific enzyme. The ear biopsies were homogenized in 0.5 mL extraction buffer (0.3 M sucrose, 0.22% (w/v) hexadecyl trimethyl ammonium bromide (CTAB), and 2.5 mM citrate prepared from 0.5 M citrate stock solution (pH 5.0)), in a Fast-Prep-24 (MP™) (40 seconds at 6 mps). Debris was removed by centrifugation at 14000×g for 10 min. Aliquots of 10 μL of the resulting supernatant were added to wells of a microtiter plate, along with 90-μL aliquots of dilution buffer (10 mM citrate, 0.22% CTAB), followed by addition of 20 μL TMB liquid substrate system (Sigma Chemical Co.) to each sample well. The microtiter plate contents were held at room temperature until the sample with the highest concentration of MPO reached an absorbance value of 0.4 at 650 nm. The reaction was stopped by addition of 50 μL 1 M H2SO4 to each sample well, and the myeloperoxidase activity in each sample was determined from the absorbance at 405 nm. The background value from the right ear, treated only with acetone, was subtracted from that for the left ear, treated with arachidonic acid in acetone, for each animal. The percent inhibition of neutrophil influx (% Inh. MPO) by compounds of the invention was determined by comparison to animals treated identically, except that the solution administered by oral gavage was devoid of inhibitor compound.
as §3

The text below walks through data of patent US20110190503A1, “Thiazolopyridin-2-yloxy-phenyl and thiazolopyrazin-2-yloxy-phenyl amines as modulators of leukotriene A4 hydrolase” (Janssen Pharmaceutical NV, priority 2008, published 2011).

For `CC(=O)N[C@@H]1C[C@H]2CC[C@@H](C1)N2CCc1ccc(Oc2nc3ncccc3s2)cc1` [Example 49, meso-N-[(3-exo)-8-{2-[4-([1,3]Thiazolo[4,5-b]pyridin-2-yloxy)phenyl]ethyl}-8-azabicyclo[3.2.1]oct-3-yl]acetamide], the inhibition at 30 mg/kg in assay [1] came out at 83%. Moreover, the figures for the half-maximal inhibitory concentration (IC50) in assay [2] and in assay [3] were 0.7 nM and 76 nM, respectively. Further, the inhibition in vivo at 30 mg/kg in assay [4] is 66%.

As to `CC(=O)N1C[C@@H]2C[C@H]1CN2Cc1ccc(Oc2nc3ncc(Cl)cc3s2)cc1` [Example 122, 2-(4-{[(1S,4S)-5-Acetyl-2,5-diazabicyclo[2.2.1]hept-2-yl]methyl}phenoxy)-6-chloro[1,3]thiazolo[4,5-b]pyridine], the inhibition at 30 mg/kg in assay [1] came out at 72%. The IC50 in assay [2] worked out at 48 nM; in assay [3], 270 nM. The inhibition in vivo at 30 mg/kg in assay [4] worked out at 66.9%.

Take `NC(=O)N1C[C@H]2CC[C@@H](C1)N2CCc1ccc(Oc2nc3ncccc3s2)cc1` [Example 54, meso-8-{2-[4-([1,3]Thiazolo[4,5-b]pyridin-2-yloxy)phenyl]ethyl}-3,8-diazabicyclo[3.2.1]octane-3-carboxamide]: the inhibition at 30 mg/kg in assay [1] is 81.2%. Besides, the IC50 in assay [2] was 9.6 nM; in assay [3], 75 ± 71 nM. Further, the inhibition in vivo at 30 mg/kg in assay [4] is 87.7%.

As to `CC(=O)N[C@H]1C[C@H]2CC[C@@H](C1)N2CCc1ccc(Oc2nc3ncccc3s2)cc1` [Example 76, meso-N-[(3-endo)-8-{2-[4-([1,3]Thiazolo[4,5-b]pyridin-2-yloxy)phenyl]ethyl}-8-azabicyclo[3.2.1]oct-3-yl]acetamide], the inhibition at 30 mg/kg in assay [1] was found to be 85.3%. The IC50 worked out at 0.5 nM in assay [2] and 65 nM in assay [3]. Moreover, the inhibition in vivo at 30 mg/kg in assay [4] was 78.3%.

As to `CCN(CC)Cc1ccc(Oc2nc3ncccc3s2)cc1` [Example 111, N-Ethyl-N-[4-([1,3]thiazolo[4,5-b]pyridin-2-yloxy)benzyl]ethanamine], the inhibition at 30 mg/kg in assay [1] turned out to be 56.8%. For the same compound, the results for the IC50 in assay [2] and in assay [3] were 6.6 nM and 30 nM, respectively. In assay [4], the inhibition in vivo at 30 mg/kg is 66.9%.

Regarding `CC(=O)N1C[C@@H]2C[C@H]1CN2Cc1ccc(Oc2nc3ncccc3s2)cc1` [Example 127, 1-{(1S,4S)-5-[4-([1,3]Thiazolo[4,5-b]pyridin-2-yloxy)benzyl]-2,5-diazabicyclo[2.2.1]hept-2-yl}ethanone], the inhibition at 30 mg/kg in assay [1] came to 91.5%. Also, the 50% inhibitory concentration (IC50) was 5 nM in assay [2] and 7.5 nM in assay [3]. In assay [4], the inhibition in vivo at 30 mg/kg was 87.6%.

For the compound `CC(=O)N1C[C@@H]2C[C@H]1CN2Cc1ccc(Oc2nc3nccnc3s2)cc1` [Example 120, 2-(4-{[(1S,4S)-5-Acetyl-2,5-diazabicyclo[2.2.1]hept-2-yl]methyl}phenoxy)[1,3]thiazolo[4,5-b]pyrazine], the inhibition at 30 mg/kg in assay [1] worked out at 57.8%. For the same compound, the half-maximal inhibitory concentration (IC50) in assay [2] was 110 ± 37 nM; in assay [3] it was 150 nM. In addition, the inhibition in vivo at 30 mg/kg in assay [4] amounted to 48.1%.

For the compound `NC(=O)C1CCN(CCc2ccc(Oc3nc4ncccc4s3)cc2)CC1` [Example 66, 1-{2-[4-([1,3]Thiazolo[4,5-b]pyridin-2-yloxy)phenyl]ethyl}piperidine-4-carboxamide], in assay [1], the inhibition at 30 mg/kg came to 76.2%. Moreover, the IC50 in assay [2] was 12 nM; in assay [3] it was 40 nM. Moreover, in assay [4], the inhibition in vivo at 30 mg/kg is 60%.

Consider `CN(C)CCC1CCCCN1Cc1ccc(Oc2nc3ncccc3s2)cc1` (stereo not drawn) [Example 258, N,N-Dimethyl-2-{1-[4-([1,3]thiazolo[4,5-b]pyridin-2-yloxy)benzyl]piperidin-2-yl}ethanamine], for which the inhibition at 30 mg/kg in assay [1] was 75%. Besides, the figures for the half-inhibitory concentration (IC50) in assay [2] and in assay [3] were 2 nM and 47 nM, respectively. Also, the inhibition in vivo at 30 mg/kg in assay [4] amounted to 13.8%.

Turning to `c1cnc2nc(Oc3ccc(CN4CCCCC4)cc3)sc2c1` [Example 85, 2-[4-(Piperidin-1-ylmethyl)phenoxy][1,3]thiazolo[4,5-b]pyridine], in assay [1], the inhibition at 30 mg/kg is 66.8%. The IC50 in assay [2] amounted to 2.9 nM; in assay [3], 37 nM. Further, the inhibition in vivo at 30 mg/kg in assay [4] was determined as 48.4%.

In the case of `CC(=O)N1CC2CN(CCOc3ccc(Oc4nc5ncccc5s4)cc3)CC2C1` (stereo not drawn) [Example 18, 2-{4-[2-(5-Acetylhexahydropyrrolo[3,4-c]pyrrol-2(1H)-yl)ethoxy]phenoxy}[1,3]thiazolo[4,5-b]pyridine], the inhibition at 30 mg/kg in assay [1] came to 80.9%. Further, the half-maximal inhibitory concentration (IC50) in assay [2] is 5.5 nM; in assay [3], 32 ± 24 nM. In assay [4], the inhibition in vivo at 30 mg/kg came out at 86.1%.

On to `CC(=O)N[C@H]1C[C@H]2CC[C@@H](C1)N2Cc1ccc(Oc2nc3ncc(F)cc3s2)cc1` [Example 288], for which, in assay [1], the inhibition at 30 mg/kg amounted to 61.7%. The half-inhibitory concentration (IC50) in assay [2] is 15 nM; in assay [3], 104 nM. In addition, the inhibition in vivo at 30 mg/kg in assay [4] came out at 94.6%.

On to `CC(=O)N1C[C@@H]2CC[C@H]1CN2Cc1ccc(Oc2nc3ncccc3s2)cc1` [Example 290, 2-(4-{[(1S,4S)-5-Acetyl-2,5-diazabicyclo[2.2.2]oct-2-yl]methyl}phenoxy)[1,3]thiazolo[4,5-b]pyridine], for which the inhibition at 30 mg/kg in assay [1] was 82.9%. The figures for the half-inhibitory concentration (IC50) in assay [2] and in assay [3] were 6 nM and 5 nM, respectively. In addition, the inhibition in vivo at 30 mg/kg in assay [4] came to 86.9%.

Turning to `NC(=O)N1C[C@@H]2C[C@H]1CN2CCOc1ccc(Oc2nc3ncccc3s2)cc1` [Example 15, (1S,4S)-5-{2-[4-([1,3]Thiazolo[4,5-b]pyridin-2-yloxy)phenoxy]ethyl}-2,5-diazabicyclo[2.2.1]heptane-2-carboxamide], the inhibition at 30 mg/kg in assay [1] was 61.9%. Besides, the half-inhibitory concentration (IC50) worked out at 29 ± 5.2 nM in assay [2] and 310 nM in assay [3]. The inhibition in vivo at 30 mg/kg in assay [4] came to 47.7%.

For the compound `CC(=O)N1C[C@H]2C[C@@H]1CN2CCc1ccc(Oc2nc3ncccc3s2)cc1` [Example 79, 2-(4-{2-[(1R,4R)-5-Acetyl-2,5-diazabicyclo[2.2.1]hept-2-yl]ethyl}phenoxy)[1,3]thiazolo[4,5-b]pyridine], the inhibition at 30 mg/kg in assay [1] amounted to 86.7%. The figures for the 50% inhibitory concentration (IC50) in assay [2] and in assay [3] were 6 nM and 20 nM, respectively. Also, in assay [4], the inhibition in vivo at 30 mg/kg came out at 82.2%.

Broadly, the inhibition is the share of the control response that was lost under treatment. Broadly, the IC50 is the concentration at which inhibition is half-maximal. In general, inhibition in vivo refers to the share of the control response that was lost under treatment.
